Laboratory results as given in US20230060588A1 (priority 2021, published 2023).

Key:
[1] = test system: MCF7 cells; assay type: cell-based
[2] = test system: MCF7 cells
[3] = test system: A375 cells; assay type: cell-based
[4] = test system: A375 cells
[5] = test system: Reporter mNeonGreen SARS-CoV-2 virus (2019-nCoV/USA_WA1/2020); assay type: cell-based
[6] = test system: PANC1 cells; assay type: cell-based
[7] = test system: SARS-CoV-2 S1 protein; assay type: cell-based
[8] = test system: MDA-MB-231 cells; assay type: cell-based
[9] = test system: LN18 cells; assay type: cell-based
[10] = test system: A549 cells; assay type: cell-based, human
[11] = test system: PANC1 cells; assay type: cell-based; remark: listed apart in the source
[12] = test system: A549 ACE2+ cells
[13] = test system: SARS-CoV-2 S1 protein-ACE2; assay type: binding
[14] = test system: MCF7 cells; assay type: cell-based; remark: listed apart in the source
[15] = test system: ACE2; assay type: cell-based, human
[16] = test system: SARS-CoV-2; settings: cited from earlier work

CC(=O)OC1O[C@H](CO)[C@@H](OC(C)=O)[C@H](OC(C)=O)[C@@H]1OC(C)=O (stereo partly drawn) [1,2,3,4-tetra-O-Acetyl-D-mannopyranose]
ECL binding [1]: moderately reduced | MAL2 binding [1]: no effect | PNA binding [1]: significantly reduced | SNA binding [1]: no effect | cell toxicity [2]: induced cell toxicity at a higher concentration | concentrations having no impact on cell viability ([2]; human): less than 0.7 mM

CC(=O)OC1O[C@H](CO)[C@@H](OC(C)=O)[C@H](O)[C@@H]1O (stereo partly drawn) [1,4-di-O-acetyl-D-mannopyranose]
ECL binding [3]: no effect | MAL2 binding [3]: no effect | PNA binding [3]: significantly reduced | SNA binding [3]: no effect | cell viability [4]: did not have any influence on cell viability

O=C[C@@H](O)[C@@H](O)[C@H](O)[C@H](O)CO [D-mannose]
cytoprotection [5]: significant cytoprotection | reduction in viral replication [5]: ~70% | ECL binding [6]: generally reduced | MAL2 binding [6]: increasing | PNA binding [6]: generally reduced | SNA binding [6]: increasing | ECL binding to S1 protein [7]: significantly reduced | MAL1 binding to S1 protein [7]: moderately reduced | MAL2 binding to S1 protein [7]: moderately reduced | PNA binding to S1 protein [7]: No PNA binding was observed | RSL binding to S1 protein [7]: significantly reduced | SNA binding to S1 protein [7]: no change | ECL binding [8]: significantly reduced | MAL2 binding [8]: no effect on enhancing | PNA binding [8]: significantly reduced | SNA binding [8]: no effect on enhancing | ECL binding [9]: significantly reduced | MAL2 binding [9]: no effect on enhancing | PNA binding [9]: significantly reduced | SNA binding [9]: no effect on enhancing | ECL binding [10]: significantly reduced | MAL2 binding [10]: slightly enhancing | PNA binding [10]: minimal to no influence | SNA binding [10]: minimal to no influence | disialyl T antigen/T antigen ratio [11]: significantly increased | sialyl T antigen/T antigen ratio [11]: significantly increased | cytotoxicity [12]: no observed cytotoxicity | total cell count [12]: negligible difference in cell count | ECL binding [1]: generally reduced | MAL2 binding [1]: increasing | PNA binding [1]: generally reduced | SNA binding [1]: increasing | ACE2 binding of S1 protein [13]: reduced ACE2 binding | disialyl T antigen/T antigen ratio [14]: significantly enhanced | sialylation of complex N-glycans [14]: sialic acids were added to multiple N-glycans | ACE2 expression [15]: did not significantly change

CN(Cc1cnc2nc(N)nc(N)c2n1)c1ccc(C(=O)N[C@@H](CCC(=O)O)C(=O)O)cc1 [methotrexate]
SARS-CoV-2 replication [16]: reduced
